Assay: Storage stability of the rapamycin derivative (bulk, in glass bottle), percent residual by HPLC
Format: physicochemical
Experimental: A biologically/physiologically active substance and a deoxidant were placed and sealed within a package. After stored at 40° C. for four weeks, the remaining amount of the biologically/physiologically active substance was measured by high speed liquid chromatography (HPLC) to determine its percent residue.
Biologically/physiologically active substance: A rapamycin derivative represented by the following chemical formula (I) (product of Nippon Kayaku Co., Ltd.). An aliquot (0.03 g) of the rapamycin derivative was placed in a glass bottle, and further, the glass bottle was placed within the below-described package.
Deoxidant: “ZH-100” (product of Mitsubishi Gas Chemical Co, Inc.). Two bags, the volume of each bag being sufficient for 100 mL, were placed and sealed within the package.
Package: An aluminum pouch in the form of a bag of a size of 300 mm in length, 300 mm in width and 0.1 mm in thickness, which was formed of a stacked structure of polyethylene terephthalate, low-density polyethylene, an aluminum film, low-density polyethylene and high-density polyethylene as materials.
After stored in the above-described state at 40° C. for four weeks, the biologically/physiologically active substance was taken out of the package and was provided as “Sample A1” for HPLC. […]
By the following equation, the percent residual of the rapamycin derivative in Sample A1 was determined. […]

Row | Percent residual (%) (stored in air at 40° C. for four weeks) | Percent residual (%) (sealed with deoxidant ZH-100 in aluminum pouch, stored at 40° C. for four weeks) | Structure (SMILES)
1 | 18.2 |  | CCOCCOC1CCC(CC(C)C2CC(=O)C(C)C(O)C(C)C(O)C(OC)C(=O)C(C)CC(C)/C=C/C=C/C=C(\C)C(OC)CC3CCC(C)C(O)(O3)C(O)C(=O)N3CCCCC3C(=O)O2)CC1OC (centres unmarked) [Comparative Example 1]
2 |  | 97.3 | CCOCCOC1CCC(CC(C)C2CC(=O)C(C)C(O)C(C)C(O)C(OC)C(=O)C(C)CC(C)/C=C/C=C/C=C(\C)C(OC)CC3CCC(C)C(O)(O3)C(O)C(=O)N3CCCCC3C(=O)O2)CC1OC (centres unmarked) [Example 1]

Reference: patent US20090054971A1, “DRUG ELUTING STENT SYSTEM AND MANUFACTURING PROCESS OF DRUG ELUTING STENT SYSTEM” (TERUMO KABUSHIKI KAISHA, priority 2005, published 2009)
